Measured values from patent publication US20240132478A1, “COCRYSTAL” (Syndesi Therapeutics SA, priority 2020, published 2024).
Entries after “also recorded” stand apart in the source; their conditions may differ. Where two headings read alike, the source gives them in different places.

What was measured:
Assay type in all cases: physicochemical
[1] = Gravimetric Vapour Sorption (GVS) moisture sorption isotherm
Protocol: Sorption isotherms were obtained using a SMS DVS Intrinsic moisture sorption analyser, controlled by DVS Intrinsic Control software. The sample temperature was maintained at 25° C. by the instrument controls. The humidity was controlled by mixing streams of dry and wet nitrogen, with a total flow rate of 200 ml/min. The relative humidity was measured by a calibrated Rotronic probe (dynamic range of 1.0-100% RH), located near the sample. The weight change, (mass relaxation) of the sample as a function of % RH was constantly monitored by a microbalance (accuracy ±0.005 mg). Typically, 5-30 mg of sample was placed in a tared mesh stainless steel basket under ambient conditions. The sample was loaded and unloaded at 40% RH and 25° C. (typical room conditions). A moisture sorption isotherm was performed as outlined below (2 scans per complete cycle). The standard isotherm was performed at 25° C. at 10% RH intervals over a 0-90% RH range. Typically, a double cycle (4 scans) was carried out. Data analysis was carried out within Microsoft Excel using the DVS Analysis Suite.
The sample was recovered after completion of the isotherm and re-analysed by XRPD.

[2] = Storage stability at elevated temperature and humidity (XRPD and HPLC purity after storage)
[3] = as above; remark: listed apart in the source
Protocol: Bruker AXS D8 Advance: XRPD diffractograms were collected on a Bruker D8 diffractometer using Cu Kα radiation (40 kV, 40 mA) and a θ-2θ goniometer fitted with a Ge monochromator. The incident beam passes through a 2.0 mm divergence slit followed by a 0.2 mm anti-scatter slit and knife edge. The diffracted beam passes through an 8.0 mm receiving slit with 2.5° Soller slits followed by the Lynxeye Detector. The software used for data collection and analysis was Diffrac Plus XRD Commander and Diffrac Plus EVA respectively. Samples were run under ambient conditions as flat plate specimens using powder as received. The sample was prepared on a polished, zero-background (510) silicon wafer by gently pressing onto the flat surface or packed into a cut cavity. The sample was rotated in its own plane. The details of the data collection method are: • Angular range: 2 to 42° 2θ • Step size: 0.05° 2θ • Collection time: 0.5 s/step (total collection time: 6.40 min)
Purity analysis was performed on an Agilent Ip 100/Infinity 111260 series system equipped with a diode array detector and using OpenLAB software. The full method details are provided below:
The three potential cocrystals were characterised using DSC, 1H NMR, TGA and by evaluating their stability with XRPD after 7 or 8 days of being stored at 40° C./75% RH. All three cocrystals were unchanged by XRPD after storage at 40° C./75% RH and none had significant amounts of solvent present (Table 28). The 4 HBA cocrystal appeared to have a similar melt to the starting material (ca. 85° C.). […] All initially appeared to have a 1:1 stoichiometry. […]

[4] = Differential Scanning Calorimetry (DSC); conditions: * = multiple thermal events
Protocol: TA Instruments Q2000: DSC data were collected on a TA Instruments Q2000 equipped with a 50 position auto sampler. Typically, 0.5 3 mg of each sample, in a pin-holed aluminium pan, was heated at 10° C./min from 25° C. to 235° C. A purge of dry nitrogen at 50 mlmL/min was maintained over the sample. The instrument control software was Advantage for Q Series and Thermal Advantage and the data were analysed using Universal Analysis or TRIOS.
TA Instruments Discovery DSC: DSC data were also collected on a TA Instruments Discovery DSC equipped with a 50 position auto-sampler. Typically, 0.5 3 mg of each sample, in a pin-holed aluminium pan, was heated at 10° C./min from 25° C. to 235° C. A purge of dry nitrogen at 50 mlmL/min was maintained over the sample. The instrument control software was TRIOS and the data were analysed using TRIOS or Universal Analysis.

[5] = Solubility assessment in solvents (visual); conditions: for solubility: read-out: Observations from solubility assessment
Protocol: API (25 mg) was dispensed to a PLC vial with a magnetic stirrer. At room temperature an aliquot of solvent was added (5 vol.=125 μL) and stirred at 25° C. for at least 5 minutes. A visual assessment was made. Solutions were held at 25° C. and suspensions were placed at 50° C. with stirring for at least 5 minutes. A visual assessment was made and if a suspension was observed, further aliquots of solvent were added at 25° C. and the above steps repeated until a maximum of 50 volumes were added (Table 7).

O=C1C[C@H](c2cc(F)c(F)c(F)c2)CN1Cn1ncnc1Cl [API, (4R)-1-[(5-chloro-1H-1,2,4-triazol-1-yl)methyl]-4-(3,4,5-trifluorophenyl)pyrrolidin-2-one]
Hygroscopicity ([1]; in words, by GVS): not hygroscopic | XRPD post-GVS ([1]; sample re-analysed by XRPD after isotherm): no form change observed; also recorded: Unchanged by XRPD post-GVS | XRPD after storage ([2]; 25° C./97% RH): XRPD - Unchanged | Purity after storage ([2]; 25° C./97% RH, 7 days): Purity - 7 days: 99.5%, 14 days: 99.5% | Purity after storage ([2]; 25° C./97% RH, 14 days): Purity - 7 days: 99.5%, 14 days: 99.5% | Purity after storage ([2]; 40° C./75% RH, 7 days): Purity - 7 days: 99.5%, 14 days: 99.5% XRPD - | Purity after storage ([2]; 40° C./75% RH, 14 days): Purity - 7 days: 99.5%, 14 days: 99.5% XRPD - | Stability after storage ([2]; 14 days at 25° C./75% RH): stable | Stability after storage ([2]; 14 days at 40° C./97% RH): stable | XRPD after storage ([3]; 40° C./75% RH): Unchanged | Stability at 25° C./97% RH and 40° C./75% RH ([3]; XRPD after storage): Stable, | Melting point (onset) [4]: 85.3 °C | solubility ([5]; 1,4-dioxane, 25 °C, organic solvent or mixture, thermodynamic from solid, 1,4-Dioxane, 5 vol, 25° C.): > 200 mg/mL | solubility ([5]; 2-methyl-1-propanol, 25 °C, organic solvent or mixture, thermodynamic from solid, 2-methyl-1-propanol, 5 vol, 25° C.): < 200 mg/mL | solubility ([5]; 2-methyl-1-propanol, 50 °C, organic solvent or mixture, thermodynamic from solid, 2-methyl-1-propanol, 5 vol, 50° C.): > 200 mg/mL | solubility ([5]; 2-propanol, 25 °C, organic solvent or mixture, thermodynamic from solid, 2-Propanol, 5 vol, 25° C.): < 200 mg/mL | solubility ([5]; 2-propanol, 50 °C, organic solvent or mixture, thermodynamic from solid, 2-Propanol, 5 vol, 50° C.): > 200 mg/mL | solubility ([5]; IPA:water (9:1 v/v), 25 °C, organic solvent or mixture, thermodynamic from solid, IPA:Water (9:1 v/v), 5 vol, 25° C.): < 200 mg/mL | solubility ([5]; IPA:water (9:1 v/v), 50 °C, organic solvent or mixture, thermodynamic from solid, IPA:Water (9:1 v/v), 5 vol, 50° C.): > 200 mg/mL | solubility ([5]; IPAC, 25 °C, organic solvent or mixture, thermodynamic from solid, IPAC, 5 vol, 25° C.): > 200 mg/mL | solubility ([5]; MEK, 25 °C, organic solvent or mixture, thermodynamic from solid, MEK, 5 vol, 25° C.): > 200 mg/mL | solubility ([5]; MIBK, 25 °C, organic solvent or mixture, thermodynamic from solid, MIBK, 5 vol, 25° C.): > 200 mg/mL | solubility ([5]; TBME, 25 °C, organic solvent or mixture, thermodynamic from solid, TBME, 5 vol, 25° C.): < 200 mg/mL | solubility ([5]; TBME, 25 °C, organic solvent or mixture, thermodynamic from solid, TBME, 10 vol, 25° C.): < 100 mg/mL | solubility ([5]; TBME, 50 °C, organic solvent or mixture, thermodynamic from solid, TBME, 5 vol, 50° C.): < 200 mg/mL | solubility ([5]; TBME, 50 °C, organic solvent or mixture, thermodynamic from solid, TBME, 10 vol, 50° C.): > 100 mg/mL | solubility ([5]; acetone, 25 °C, organic solvent or mixture, thermodynamic from solid, Acetone, 5 vol, 25° C.): > 200 mg/mL | solubility ([5]; acetone:water (95:5 v/v), 25 °C, organic solvent or mixture, thermodynamic from solid, Acetone:water (95:5 v/v), 5 vol, 25° C.): < 200 mg/mL | solubility ([5]; acetone:water (95:5 v/v), 50 °C, organic solvent or mixture, thermodynamic from solid, Acetone:water (95:5 v/v), 5 vol, 50° C.): > 200 mg/mL | solubility ([5]; acetonitrile, 25 °C, organic solvent or mixture, thermodynamic from solid, Acetonitrile, 5 vol, 25° C.): > 200 mg/mL | solubility ([5]; diethyl ether, 25 °C, organic solvent or mixture, thermodynamic from solid, Diethyl ether, 5 vol, 25° C.): < 200 mg/mL | solubility ([5]; diethyl ether, 25 °C, organic solvent or mixture, thermodynamic from solid, Diethyl ether, 10 vol, 25° C.): < 100 mg/mL | solubility ([5]; diethyl ether, 25 °C, organic solvent or mixture, thermodynamic from solid, Diethyl ether, 50 vol, 25° C.): > 20 mg/mL | solubility ([5]; ethanol, 25 °C, organic solvent or mixture, thermodynamic from solid, Ethanol, 5 vol, 25° C.): < 200 mg/mL | solubility ([5]; ethanol, 50 °C, organic solvent or mixture, thermodynamic from solid, Ethanol, 5 vol, 50° C.): > 200 mg/mL | solubility ([5]; ethanol:water (9:1 v/v), 25 °C, organic solvent or mixture, thermodynamic from solid, Ethanol:Water (9:1 v/v), 5 vol, 25° C.): > 200 mg/mL | solubility ([5]; ethyl acetate, 25 °C, organic solvent or mixture, thermodynamic from solid, Ethyl acetate, 5 vol, 25° C.): > 200 mg/mL | Solubility in organic solvents ([5]; most of the organic solvents tested, water, diethyl ether and n-heptane are the exceptions): good solubility | solubility ([5]; n-heptane, 25 °C, organic solvent or mixture, thermodynamic from solid, n-heptane, 5 vol, 25° C.): < 200 mg/mL | solubility ([5]; n-heptane, 50 °C, organic solvent or mixture, thermodynamic from solid, n-heptane, 5 vol, 50° C.): < 200 mg/mL | solubility ([5]; n-heptane, 50 °C, organic solvent or mixture, thermodynamic from solid, n-heptane, 50 vol, 50° C.): < 20 mg/mL | solubility ([5]; nitromethane, 25 °C, organic solvent or mixture, thermodynamic from solid, Nitromethane, 5 vol, 25° C.): > 200 mg/mL | solubility ([5]; tetrahydrofuran, 25 °C, organic solvent or mixture, thermodynamic from solid, Tetrahydrofuran, 5 vol, 25° C.): > 200 mg/mL | solubility ([5]; toluene, 25 °C, organic solvent or mixture, thermodynamic from solid, Toluene, 5 vol, 25° C.): < 200 mg/mL | solubility ([5]; toluene, 50 °C, organic solvent or mixture, thermodynamic from solid, Toluene, 5 vol, 50° C.): > 200 mg/mL | solubility ([5]; water, 25 °C, water, thermodynamic from solid, Water, 5 vol, 25° C.): < 200 mg/mL | solubility ([5]; water, 25 °C, water, thermodynamic from solid, Water, 10 vol, 25° C.): < 100 mg/mL | solubility ([5]; water, 25 °C, water, thermodynamic from solid, Water, 50 vol, 25° C.): < 20 mg/mL | solubility ([5]; water, 50 °C, water, thermodynamic from solid, Water, 5 vol, 50° C.): < 200 mg/mL | solubility ([5]; water, 50 °C, water, thermodynamic from solid, Water, 10 vol, 50° C.): < 100 mg/mL | solubility ([5]; water, 50 °C, water, thermodynamic from solid, Water, 50 vol, 50° C.): < 20 mg/mL
